Experimental data reported in ChEMBL document CHEMBL1212738, “Phenotypic and genotypic characterization of Enterobacteriaceae with decreased susceptibility to carbapenems: results from large hospital-based surveillance studies in China” (2010).
Values after ≈ are worked out from the molar mass of the structure shown.

Assays:
[1] = tested on: Enterobacter cloacae; experiment: Antimicrobial activity against carbapenem-resistant Enterobacter cloacae NJ91 deficient in CTX-M-14, ompC/F by CLSI method; assay type: functional
[2] = tested on: Escherichia coli; experiment: Antimicrobial activity against Escherichia coli C600 transconjugant WH76T expressing IMP-4, TEM-1, CTX-M-3, qnrS1 by CLSI method
[3] = tested on: Klebsiella pneumoniae; experiment: Antimicrobial activity against Klebsiella pneumoniae WH76 expressing IMP-4, TEM-1, SHV-14, CTX-M-3, qnrS1 by CLSI method; assay type: functional
[4] = tested on: Escherichia coli; experiment: Antimicrobial activity against Escherichia coli ZJ87T expressing KPC-2 by CLSI method; assay type: functional
[5] = tested on: Citrobacter freundii; experiment: Antimicrobial activity against Citrobacter freundii SZ63T expressing IMP-4, qnrS1by CLSI method; assay type: functional
[6] = tested on: Klebsiella pneumoniae; experiment: Antimicrobial activity against carbapenem-resistant Klebsiella pneumoniae XJ81 deficient in TEM-1, SHV-12, DHA-1, aac(6')-Ib, ompK35/36 by CLSI method; assay type: functional
[7] = tested on: Klebsiella pneumoniae; experiment: Antimicrobial activity against carbapenem-resistant Klebsiella pneumoniae GZ84 deficient in SHV-11, aac(6')-Ib-cr, ompK35 by CLSI method; assay type: functional
[8] = tested on: Klebsiella pneumoniae; experiment: Antimicrobial activity against Klebsiella pneumoniae GZ64 expressing IMP-4, ompK35/36 by CLSI method; assay type: functional
[9] = tested on: Klebsiella pneumoniae; experiment: Antimicrobial activity against carbapenem-resistant Klebsiella pneumoniae PU3 deficient in DHA-1, aac(6')-Ib-cr, ompK35/36 by CLSI method; assay type: functional
[10] = tested on: Escherichia coli; experiment: Antimicrobial activity against Escherichia coli PU101T expressing CMY-2 by CLSI method; assay type: functional
[11] = tested on: Escherichia coli; experiment: Antimicrobial activity against Escherichia coli C600 transconjugant XJ81T expressing TEM-1, SHV-12, aac(6')-Ib by CLSI method
[12] = tested on: Escherichia coli; experiment: Antimicrobial activity against carbapenem-resistant Escherichia coli PU102 deficient in TEM-1, CTX-M-14, CMY-2, aac(6')-Ib, ompC DEc, ompF by CLSI method; assay type: functional
[13] = tested on: Klebsiella pneumoniae; experiment: Antimicrobial activity against Klebsiella pneumoniae ZJ99T expressing KPC-2, CTX-M-3, qnrS1 by CLSI method; assay type: functional
[14] = tested on: Enterobacter cloacae; experiment: Antimicrobial activity against carbapenem-resistant Enterobacter cloacae RJ94 deficient in IMP-4, TEM-1, CTX-M-3, ompC by CLSI method; assay type: functional
[15] = tested on: Klebsiella pneumoniae; experiment: Antimicrobial activity against carbapenem-resistant Klebsiella pneumoniae GZ66 deficient in SHV-11, DHA-1, ompK35/36 by CLSI method; assay type: functional
[16] = tested on: Escherichia coli; experiment: Antimicrobial activity against carbapenem-resistant Escherichia coli PU96 deficient in TEM-1, CTX-M-14, CMY-2, ompC/F by CLSI method; assay type: functional
[17] = tested on: Klebsiella pneumoniae; experiment: Antimicrobial activity against carbapenem-resistant Klebsiella pneumoniae ZJ70 deficient in KPC-2, SHV-11, CTX-M-14, ompK35/36 by CLSI method; assay type: functional
[18] = tested on: Klebsiella pneumoniae; experiment: Antimicrobial activity against carbapenem-resistant Klebsiella pneumoniae CY75 deficient in SHV-11, DHA-1, ompK35/36 by CLSI method; assay type: functional
[19] = tested on: Klebsiella pneumoniae; experiment: Antimicrobial activity against Klebsiella pneumoniae FZ47T expressing IMP-8, TEM-1, CTX-M-14, qnrB2, aac(6')-Ib by CLSI method; assay type: functional
[20] = tested on: Klebsiella pneumoniae; experiment: Antimicrobial activity against carbapenem-resistant Klebsiella pneumoniae SX67 deficient in SHV-2, CTX-M-14, DHA-1, qnrB6/S1, aac(6')-Ib-cr, ompK35/36 by CLSI method; assay type: functional
[21] = tested on: Klebsiella pneumoniae; experiment: Antimicrobial activity against Klebsiella pneumoniae CY1T expressing SHV-11, DHA-1 by CLSI method; assay type: functional
[22] = tested on: Escherichia coli; experiment: Antimicrobial activity against carbapenem-resistant Escherichia coli PU60 deficient in TEM-1, CMY-2, ompC/F by CLSI method; assay type: functional
[23] = tested on: Klebsiella pneumoniae; experiment: Antimicrobial activity against carbapenem-resistant Klebsiella pneumoniae SZ61 deficient in TEM-1, SHV-1a, CMY-2, ompK35/36 by CLSI method; assay type: functional
[24] = tested on: Klebsiella pneumoniae; experiment: Antimicrobial activity against Klebsiella pneumoniae PU104T expressing TEM-1, CTX-M-15 by CLSI method; assay type: functional
[25] = tested on: Enterobacter cloacae; experiment: Antimicrobial activity against carbapenem-resistant Enterobacter cloacae SZ93 deficient in ompC by CLSI method; assay type: functional
[26] = tested on: Klebsiella pneumoniae; experiment: Antimicrobial activity against Klebsiella pneumoniae FZ49T expressing IMP-8, TEM-1, CTX-M-14, qnrB2, aac(6')-Ib by CLSI method; assay type: functional
[27] = tested on: Escherichia coli; experiment: Antimicrobial activity against carbapenem-resistant Escherichia coli PU43 deficient in TEM-1, CTX-M-14, aac(6')-Ib, ompC/F by CLSI method; assay type: functional
[28] = tested on: Klebsiella pneumoniae; experiment: Antimicrobial activity against carbapenem-resistant Klebsiella pneumoniae ZJ69 deficient in SHV-28, ompK35/36 by CLSI method; assay type: functional
[29] = tested on: Klebsiella pneumoniae; experiment: Antimicrobial activity against Klebsiella pneumoniae WH97 expressing SHV-33, aac(6')-Ib, ompK35 DE by CLSI method; assay type: functional
[30] = tested on: Enterobacter cloacae; experiment: Antimicrobial activity against carbapenem-resistant Enterobacter cloacae NJ90 deficient in CTX-M-14, ompC/F by CLSI method; assay type: functional
[31] = tested on: Escherichia coli; experiment: Antimicrobial activity against Escherichia coli PU60T expressing CMY-2 by CLSI method; assay type: functional
[32] = tested on: Citrobacter freundii; experiment: Antimicrobial activity against Citrobacter freundii SZ63 expressing IMP-4, qnrS1by CLSI method; assay type: functional
[33] = tested on: Enterobacter cloacae; experiment: Antimicrobial activity against carbapenem-resistant Enterobacter cloacae NJ88 deficient in CTX-M-14, ompC/F by CLSI method; assay type: functional

CN(C)c1cc(NC(=O)CNC(C)(C)C)c(O)c2c1C[C@H]1C[C@H]3[C@H](N(C)C)C(O)=C(C(N)=O)C(=O)[C@@]3(O)C(O)=C1C2=O [TIGECYCLINE]
MIC [1]: 0.5 µg/mL (≈ 0.854 µM)
MIC [2]: 0.06 µg/mL (≈ 0.102 µM)
MIC [3]: 0.5 µg/mL (≈ 0.854 µM)
MIC [4]: 0.25 µg/mL (≈ 0.427 µM)
MIC [5]: 0.13 µg/mL (≈ 0.222 µM)
MIC [6]: 0.5 µg/mL (≈ 0.854 µM)
MIC [7]: 0.5 µg/mL (≈ 0.854 µM)
MIC [8]: 0.5 µg/mL (≈ 0.854 µM)
MIC [9]: 0.25 µg/mL (≈ 0.427 µM)
MIC [10]: 0.25 µg/mL (≈ 0.427 µM)
MIC [11]: 0.064 µg/mL (≈ 0.109 µM)
MIC [12]: 0.25 µg/mL (≈ 0.427 µM)
MIC [13]: 0.25 µg/mL (≈ 0.427 µM)
MIC [14]: 1 µg/mL (≈ 1.71 µM)
MIC [15]: 0.5 µg/mL (≈ 0.854 µM)
MIC [16]: 1 µg/mL (≈ 1.71 µM)
MIC [17]: 0.25 µg/mL (≈ 0.427 µM)
MIC [18]: 1 µg/mL (≈ 1.71 µM)
MIC [19]: 0.06 µg/mL (≈ 0.102 µM)
MIC [20]: 0.5 µg/mL (≈ 0.854 µM)
MIC [21]: 1 µg/mL (≈ 1.71 µM)
MIC [22]: 0.125 µg/mL (≈ 0.213 µM)
MIC [23]: 4 µg/mL (≈ 6.83 µM)
MIC [24]: 0.25 µg/mL (≈ 0.427 µM)
MIC [25]: 1 µg/mL (≈ 1.71 µM)
MIC [26]: 0.06 µg/mL (≈ 0.102 µM)
MIC [27]: 0.25 µg/mL (≈ 0.427 µM)
MIC [28]: 0.5 µg/mL (≈ 0.854 µM)
MIC [29]: 0.5 µg/mL (≈ 0.854 µM)
MIC [30]: 0.5 µg/mL (≈ 0.854 µM)
MIC [31]: 0.125 µg/mL (≈ 0.213 µM)
MIC [32]: 1 µg/mL (≈ 1.71 µM)
MIC [33]: 0.5 µg/mL (≈ 0.854 µM)
